Measurements as given in ChEMBL document CHEMBL5291721, “A preclinical secondary pharmacology resource illuminates target-adverse drug reaction associations of marketed drugs” (Nat Commun, 2023).

Key:
[1] = biological target: T1, 5-hydroxytryptamine receptor 2C (Homo sapiens, UniProt P28335)
T1 sequence (P28335 whole entry): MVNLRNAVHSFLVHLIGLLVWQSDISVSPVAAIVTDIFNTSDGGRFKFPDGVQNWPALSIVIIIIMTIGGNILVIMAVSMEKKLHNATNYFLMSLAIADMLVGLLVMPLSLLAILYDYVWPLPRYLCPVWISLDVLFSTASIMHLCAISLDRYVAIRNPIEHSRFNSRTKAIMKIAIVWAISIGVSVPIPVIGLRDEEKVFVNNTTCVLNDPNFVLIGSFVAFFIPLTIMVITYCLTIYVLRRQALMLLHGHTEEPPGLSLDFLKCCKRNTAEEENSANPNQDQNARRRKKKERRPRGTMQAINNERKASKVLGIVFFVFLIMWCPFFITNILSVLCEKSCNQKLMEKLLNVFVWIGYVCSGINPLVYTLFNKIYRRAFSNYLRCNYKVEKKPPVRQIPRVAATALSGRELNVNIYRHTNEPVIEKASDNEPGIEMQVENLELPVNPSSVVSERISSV

[2] = biological target: T2, Amine oxidase [flavin-containing] A (Homo sapiens, UniProt P21397); assay type: functional
T2 sequence (P21397 whole entry): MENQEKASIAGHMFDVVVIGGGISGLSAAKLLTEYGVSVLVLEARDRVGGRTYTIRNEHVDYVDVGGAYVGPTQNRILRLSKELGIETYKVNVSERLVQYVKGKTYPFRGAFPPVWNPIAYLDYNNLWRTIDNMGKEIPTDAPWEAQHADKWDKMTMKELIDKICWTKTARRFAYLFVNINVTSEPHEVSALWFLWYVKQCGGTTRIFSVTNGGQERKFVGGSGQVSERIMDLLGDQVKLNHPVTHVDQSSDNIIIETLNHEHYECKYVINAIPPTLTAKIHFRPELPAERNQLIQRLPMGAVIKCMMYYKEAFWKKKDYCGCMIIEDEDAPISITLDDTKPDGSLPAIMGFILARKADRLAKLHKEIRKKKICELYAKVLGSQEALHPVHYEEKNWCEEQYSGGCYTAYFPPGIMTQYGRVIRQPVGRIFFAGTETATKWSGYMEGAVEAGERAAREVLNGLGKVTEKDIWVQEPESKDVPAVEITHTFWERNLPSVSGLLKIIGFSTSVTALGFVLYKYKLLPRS

[3] = biological target: Sodium-dependent dopamine transporter (Homo sapiens, UniProt Q01959)
Sodium-dependent dopamine transporter, sequence (Q01959 whole entry): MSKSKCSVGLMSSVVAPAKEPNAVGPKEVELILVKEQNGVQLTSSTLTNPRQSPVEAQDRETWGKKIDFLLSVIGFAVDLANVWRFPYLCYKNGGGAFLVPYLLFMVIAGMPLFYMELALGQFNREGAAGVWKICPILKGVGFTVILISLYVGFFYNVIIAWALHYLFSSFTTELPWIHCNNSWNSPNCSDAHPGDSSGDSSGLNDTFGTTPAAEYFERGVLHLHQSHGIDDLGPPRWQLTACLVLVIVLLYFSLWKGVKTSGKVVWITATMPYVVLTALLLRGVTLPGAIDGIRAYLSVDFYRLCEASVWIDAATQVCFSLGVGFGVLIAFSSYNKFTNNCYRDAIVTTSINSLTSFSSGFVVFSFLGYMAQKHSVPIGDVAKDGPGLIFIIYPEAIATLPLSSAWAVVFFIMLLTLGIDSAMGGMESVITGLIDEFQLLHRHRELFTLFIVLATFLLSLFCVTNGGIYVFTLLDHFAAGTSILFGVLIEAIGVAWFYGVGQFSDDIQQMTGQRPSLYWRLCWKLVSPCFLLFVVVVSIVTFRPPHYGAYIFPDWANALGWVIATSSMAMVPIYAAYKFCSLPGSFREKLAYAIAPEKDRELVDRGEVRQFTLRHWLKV

[4] = biological target: Glutamate receptor ionotropic, NMDA 1 (Rattus norvegicus, UniProt P35439)
[5] = biological target: T3, Alpha-1A adrenergic receptor (Homo sapiens, UniProt P35348); assay type: functional, cell-based
T3 sequence (P35348 whole entry): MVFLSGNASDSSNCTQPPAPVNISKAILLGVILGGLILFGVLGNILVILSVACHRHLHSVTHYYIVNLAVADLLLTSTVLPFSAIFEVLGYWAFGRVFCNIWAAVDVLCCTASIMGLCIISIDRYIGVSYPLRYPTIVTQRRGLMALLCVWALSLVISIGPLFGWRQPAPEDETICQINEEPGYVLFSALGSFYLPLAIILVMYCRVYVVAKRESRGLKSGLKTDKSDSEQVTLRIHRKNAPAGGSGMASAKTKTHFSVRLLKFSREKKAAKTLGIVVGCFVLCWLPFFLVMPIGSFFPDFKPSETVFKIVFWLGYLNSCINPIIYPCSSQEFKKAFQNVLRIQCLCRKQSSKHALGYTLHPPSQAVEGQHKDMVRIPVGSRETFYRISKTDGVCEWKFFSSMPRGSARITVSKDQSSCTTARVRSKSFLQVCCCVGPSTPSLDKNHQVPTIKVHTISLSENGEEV

[6] = biological target: Gamma-aminobutyric acid receptor subunit alpha-1 (Rattus norvegicus, UniProt P62813); assay type: functional
Gamma-aminobutyric acid receptor subunit alpha-1, sequence (P62813 whole entry): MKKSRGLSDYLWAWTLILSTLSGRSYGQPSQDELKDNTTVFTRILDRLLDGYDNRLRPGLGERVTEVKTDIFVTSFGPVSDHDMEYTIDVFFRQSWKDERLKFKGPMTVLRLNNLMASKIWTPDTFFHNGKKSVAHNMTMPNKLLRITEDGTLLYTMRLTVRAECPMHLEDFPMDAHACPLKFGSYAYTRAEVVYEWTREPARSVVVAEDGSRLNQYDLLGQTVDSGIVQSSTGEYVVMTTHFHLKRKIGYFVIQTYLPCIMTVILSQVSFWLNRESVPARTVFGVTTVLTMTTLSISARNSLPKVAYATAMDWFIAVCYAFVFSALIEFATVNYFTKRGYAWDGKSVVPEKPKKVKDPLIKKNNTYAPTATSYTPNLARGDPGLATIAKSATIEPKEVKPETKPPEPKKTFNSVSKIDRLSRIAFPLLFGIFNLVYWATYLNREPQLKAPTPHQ

[7] = biological target: Delta-type opioid receptor (Homo sapiens, UniProt P41143)
Delta-type opioid receptor, sequence (P41143 whole entry): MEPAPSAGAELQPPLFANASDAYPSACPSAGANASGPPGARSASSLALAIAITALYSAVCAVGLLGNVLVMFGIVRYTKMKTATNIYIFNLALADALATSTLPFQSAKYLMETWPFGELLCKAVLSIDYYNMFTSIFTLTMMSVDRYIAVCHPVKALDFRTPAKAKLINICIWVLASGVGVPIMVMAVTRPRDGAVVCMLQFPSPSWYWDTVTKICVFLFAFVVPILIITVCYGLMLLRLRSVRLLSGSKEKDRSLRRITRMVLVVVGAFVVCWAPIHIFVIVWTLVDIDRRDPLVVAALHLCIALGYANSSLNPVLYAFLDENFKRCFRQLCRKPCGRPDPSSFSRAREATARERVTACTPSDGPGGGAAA

[8] = biological target: D(1A) dopamine receptor (Homo sapiens, UniProt P21728); assay type: functional, cell-based
D(1A) dopamine receptor, sequence (P21728 whole entry): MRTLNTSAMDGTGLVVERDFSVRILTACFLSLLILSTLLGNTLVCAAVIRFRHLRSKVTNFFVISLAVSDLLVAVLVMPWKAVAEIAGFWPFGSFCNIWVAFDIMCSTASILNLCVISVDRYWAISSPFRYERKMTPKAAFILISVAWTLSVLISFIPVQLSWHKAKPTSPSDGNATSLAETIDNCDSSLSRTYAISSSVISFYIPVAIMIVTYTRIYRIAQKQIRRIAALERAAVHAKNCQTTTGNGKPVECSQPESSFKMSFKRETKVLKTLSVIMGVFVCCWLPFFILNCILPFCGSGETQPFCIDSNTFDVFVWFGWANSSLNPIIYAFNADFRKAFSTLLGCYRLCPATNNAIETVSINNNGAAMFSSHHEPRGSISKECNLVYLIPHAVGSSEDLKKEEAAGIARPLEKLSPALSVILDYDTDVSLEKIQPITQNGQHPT

[9] = biological target: T4, Glucocorticoid receptor (Homo sapiens, UniProt P04150)
T4 sequence (P04150 whole entry): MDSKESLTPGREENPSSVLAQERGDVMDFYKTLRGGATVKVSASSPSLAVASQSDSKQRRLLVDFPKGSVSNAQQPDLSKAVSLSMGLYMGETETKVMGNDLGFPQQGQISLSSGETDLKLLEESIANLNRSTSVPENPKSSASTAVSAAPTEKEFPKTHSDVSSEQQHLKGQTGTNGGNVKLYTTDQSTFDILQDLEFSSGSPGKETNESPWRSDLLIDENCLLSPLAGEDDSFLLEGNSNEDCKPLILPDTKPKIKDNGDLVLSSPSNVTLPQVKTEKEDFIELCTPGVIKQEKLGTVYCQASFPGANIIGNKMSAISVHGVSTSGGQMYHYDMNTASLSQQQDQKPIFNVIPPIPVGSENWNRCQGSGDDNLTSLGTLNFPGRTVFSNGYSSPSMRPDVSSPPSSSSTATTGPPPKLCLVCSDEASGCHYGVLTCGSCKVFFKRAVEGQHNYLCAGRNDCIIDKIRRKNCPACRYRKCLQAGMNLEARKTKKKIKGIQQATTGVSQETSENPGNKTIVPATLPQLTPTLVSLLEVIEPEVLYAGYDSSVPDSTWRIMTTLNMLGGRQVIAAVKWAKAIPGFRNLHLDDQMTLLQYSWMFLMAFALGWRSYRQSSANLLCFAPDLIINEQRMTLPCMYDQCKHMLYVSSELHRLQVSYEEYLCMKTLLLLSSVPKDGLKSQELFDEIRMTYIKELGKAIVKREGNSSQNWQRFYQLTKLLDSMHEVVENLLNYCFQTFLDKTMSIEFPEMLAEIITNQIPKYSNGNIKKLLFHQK

[10] = biological target: Vasopressin V2 receptor (Homo sapiens, UniProt P30518)
Vasopressin V2 receptor, sequence (P30518 whole entry): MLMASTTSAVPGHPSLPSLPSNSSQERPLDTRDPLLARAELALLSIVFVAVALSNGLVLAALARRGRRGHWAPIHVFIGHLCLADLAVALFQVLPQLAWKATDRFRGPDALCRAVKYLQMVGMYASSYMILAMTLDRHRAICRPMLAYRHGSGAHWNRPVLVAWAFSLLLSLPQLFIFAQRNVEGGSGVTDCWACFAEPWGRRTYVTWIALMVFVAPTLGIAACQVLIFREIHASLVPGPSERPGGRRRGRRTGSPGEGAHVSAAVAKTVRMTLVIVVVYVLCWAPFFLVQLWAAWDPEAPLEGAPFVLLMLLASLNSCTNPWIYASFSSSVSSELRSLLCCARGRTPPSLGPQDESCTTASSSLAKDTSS

[11] = biological target: Motilin receptor (Homo sapiens, UniProt O43193)
Motilin receptor, sequence (O43193 whole entry): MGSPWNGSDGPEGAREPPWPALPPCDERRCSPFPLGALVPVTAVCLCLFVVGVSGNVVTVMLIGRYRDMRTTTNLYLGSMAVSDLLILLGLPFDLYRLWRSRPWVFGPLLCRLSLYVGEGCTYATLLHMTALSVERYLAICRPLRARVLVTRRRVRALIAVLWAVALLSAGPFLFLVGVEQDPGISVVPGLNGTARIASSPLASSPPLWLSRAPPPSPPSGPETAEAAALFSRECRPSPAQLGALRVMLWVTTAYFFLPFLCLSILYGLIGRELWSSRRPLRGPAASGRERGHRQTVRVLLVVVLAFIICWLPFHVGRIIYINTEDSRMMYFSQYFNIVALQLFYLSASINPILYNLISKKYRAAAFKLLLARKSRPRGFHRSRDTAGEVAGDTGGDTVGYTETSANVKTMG

[12] = biological target: 3',5'-cyclic-AMP phosphodiesterase 4D (Homo sapiens, UniProt Q08499); assay type: functional
3',5'-cyclic-AMP phosphodiesterase 4D, sequence (Q08499 whole entry): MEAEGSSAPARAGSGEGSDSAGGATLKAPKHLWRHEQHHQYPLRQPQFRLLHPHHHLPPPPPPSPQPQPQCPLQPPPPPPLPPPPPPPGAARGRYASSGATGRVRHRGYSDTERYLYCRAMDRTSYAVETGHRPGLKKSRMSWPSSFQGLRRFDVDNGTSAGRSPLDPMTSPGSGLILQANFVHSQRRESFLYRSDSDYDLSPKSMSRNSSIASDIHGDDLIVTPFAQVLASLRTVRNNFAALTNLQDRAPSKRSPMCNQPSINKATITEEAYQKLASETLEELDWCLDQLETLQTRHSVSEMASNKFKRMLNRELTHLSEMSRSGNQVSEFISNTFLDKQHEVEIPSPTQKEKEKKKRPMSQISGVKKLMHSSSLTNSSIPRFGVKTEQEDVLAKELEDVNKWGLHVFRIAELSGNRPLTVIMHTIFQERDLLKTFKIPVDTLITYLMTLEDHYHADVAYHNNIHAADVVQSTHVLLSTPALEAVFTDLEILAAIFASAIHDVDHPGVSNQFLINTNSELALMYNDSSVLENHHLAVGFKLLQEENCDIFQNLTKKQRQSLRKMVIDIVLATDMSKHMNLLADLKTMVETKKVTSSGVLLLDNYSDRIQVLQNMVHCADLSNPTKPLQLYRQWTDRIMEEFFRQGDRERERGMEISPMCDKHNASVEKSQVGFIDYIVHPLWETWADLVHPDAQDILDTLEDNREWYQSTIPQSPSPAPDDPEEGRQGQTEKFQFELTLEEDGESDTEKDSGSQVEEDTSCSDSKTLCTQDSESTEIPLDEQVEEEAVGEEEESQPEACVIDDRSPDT
Also: assay procedure not described here.

Row | Compound | AC50 [1] | AC50 [2] | AC50 [3] | AC50 [4] | AC50 [5] | AC50 [6] | AC50 [7] | AC50 [8] | AC50 [9] | AC50 [10] | AC50 [11] | AC50 [12]
1 | Clc1ccccc1C(c1ccccc1)(c1ccccc1)n1ccnc1 [CLOTRIMAZOLE] | > 30 µM | > 10 µM | 14.8 µM | > 10 µM | > 30 µM | > 10 µM | > 30 µM |  |  |  |  | 
2 | THIMEROSAL |  |  |  |  |  |  |  | > 100 µM |  |  |  | 
3 | Brc1c(NC2=NCCN2)ccc2nccnc12 [BRIMONIDINE] | > 30 µM | > 30 µM | > 30 µM | > 30 µM |  | > 30 µM | > 30 µM | > 30 µM | > 30 µM | > 30 µM | > 30 µM | > 30 µM
4 | CC(CC1c2ccccc2CCc2ccccc21)CN(C)C (centres undefined) [BUTRIPTYLINE] | 3 µM | > 30 µM |  | > 30 µM | 15 µM | > 30 µM |  | > 30 µM |  |  |  | > 30 µM
5 | COc1ccc2c3c1O[C@H]1[C@@H](O)CC[C@H]4[C@@H](C2)N(C)CC[C@@]341 [DIHYDROCODEINE] | > 10 µM | > 30 µM |  | > 30 µM | > 30 µM | > 30 µM | > 30 µM | > 30 µM |  |  |  | > 30 µM
6 | C[C@H]1COc2c(C3(N)CC3)c(F)cc3c(=O)c(C(=O)O)cn1c23 [PAZUFLOXACIN] | > 30 µM | > 10 µM | > 10 µM | > 10 µM |  | > 10 µM | > 30 µM | > 10 µM | > 30 µM | > 10 µM | > 10 µM | > 30 µM
7 | NC(=O)OCC(COC(N)=O)c1ccccc1 [FELBAMATE] | > 30 µM | > 10 µM | > 10 µM | > 10 µM |  | > 10 µM | > 30 µM | > 10 µM | > 10 µM | > 10 µM | > 10 µM | > 30 µM
8 | C#C[C@]1(O)CC[C@H]2[C@@H]3[C@H](C)CC4=C(CCC(=O)C4)[C@H]3CC[C@@]21C [TIBOLONE] | > 30 µM | > 30 µM | 27 µM | > 30 µM | > 30 µM | 30 µM | > 30 µM | > 30 µM |  | > 30 µM | > 30 µM | 6.9 µM
9 | CC/C(=C(\c1ccccc1)c1ccc(OCCN(C)C)cc1)c1ccccc1 [TAMOXIFEN] | 7 µM | > 10 µM | 12.3 µM | > 10 µM | > 30 µM | > 10 µM | > 30 µM |  |  |  |  | 
